According to patent publication US7193108B2, “Phenylpropionic acid derivatives” (Ajinomoto Co., Inc., priority 2001, dated 2007):

Molecular target: T1, integrin α 4 β 7 (Homo sapiens, UniProt P13612+P26010)
T1 construct: lymphoma cell strain RPMI-8866 of human B cells, known to express integrin α 4 β 7; endogenous in cells; host or cells: RPMI-8866 (human B cell lymphoma line)
T1 sequence (P13612 34-1032): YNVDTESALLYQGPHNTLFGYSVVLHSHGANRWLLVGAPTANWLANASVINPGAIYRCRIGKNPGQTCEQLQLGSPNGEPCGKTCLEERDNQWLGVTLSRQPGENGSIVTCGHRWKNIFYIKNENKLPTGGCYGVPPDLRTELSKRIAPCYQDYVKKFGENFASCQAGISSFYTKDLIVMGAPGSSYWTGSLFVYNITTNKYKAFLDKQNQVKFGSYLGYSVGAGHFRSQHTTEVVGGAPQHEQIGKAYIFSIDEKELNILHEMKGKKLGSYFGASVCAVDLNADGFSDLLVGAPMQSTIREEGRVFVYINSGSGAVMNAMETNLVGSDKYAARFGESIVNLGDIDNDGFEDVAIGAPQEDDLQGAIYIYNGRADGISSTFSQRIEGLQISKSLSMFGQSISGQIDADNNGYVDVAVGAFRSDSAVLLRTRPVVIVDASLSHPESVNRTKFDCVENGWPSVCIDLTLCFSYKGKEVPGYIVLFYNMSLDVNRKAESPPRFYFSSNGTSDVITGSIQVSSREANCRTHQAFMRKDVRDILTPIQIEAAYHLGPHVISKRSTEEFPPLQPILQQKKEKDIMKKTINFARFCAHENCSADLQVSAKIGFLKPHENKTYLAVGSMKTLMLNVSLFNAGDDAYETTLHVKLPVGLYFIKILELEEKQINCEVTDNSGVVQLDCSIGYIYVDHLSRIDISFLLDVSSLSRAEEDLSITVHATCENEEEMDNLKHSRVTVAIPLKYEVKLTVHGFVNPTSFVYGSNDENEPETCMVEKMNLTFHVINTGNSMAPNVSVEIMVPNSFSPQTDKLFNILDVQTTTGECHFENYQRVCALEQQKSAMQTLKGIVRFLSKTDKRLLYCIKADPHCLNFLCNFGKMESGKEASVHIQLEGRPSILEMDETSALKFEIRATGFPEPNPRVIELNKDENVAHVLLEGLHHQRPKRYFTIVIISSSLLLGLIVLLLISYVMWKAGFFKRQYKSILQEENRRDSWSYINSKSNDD
T1 sequence (P26010 20-798): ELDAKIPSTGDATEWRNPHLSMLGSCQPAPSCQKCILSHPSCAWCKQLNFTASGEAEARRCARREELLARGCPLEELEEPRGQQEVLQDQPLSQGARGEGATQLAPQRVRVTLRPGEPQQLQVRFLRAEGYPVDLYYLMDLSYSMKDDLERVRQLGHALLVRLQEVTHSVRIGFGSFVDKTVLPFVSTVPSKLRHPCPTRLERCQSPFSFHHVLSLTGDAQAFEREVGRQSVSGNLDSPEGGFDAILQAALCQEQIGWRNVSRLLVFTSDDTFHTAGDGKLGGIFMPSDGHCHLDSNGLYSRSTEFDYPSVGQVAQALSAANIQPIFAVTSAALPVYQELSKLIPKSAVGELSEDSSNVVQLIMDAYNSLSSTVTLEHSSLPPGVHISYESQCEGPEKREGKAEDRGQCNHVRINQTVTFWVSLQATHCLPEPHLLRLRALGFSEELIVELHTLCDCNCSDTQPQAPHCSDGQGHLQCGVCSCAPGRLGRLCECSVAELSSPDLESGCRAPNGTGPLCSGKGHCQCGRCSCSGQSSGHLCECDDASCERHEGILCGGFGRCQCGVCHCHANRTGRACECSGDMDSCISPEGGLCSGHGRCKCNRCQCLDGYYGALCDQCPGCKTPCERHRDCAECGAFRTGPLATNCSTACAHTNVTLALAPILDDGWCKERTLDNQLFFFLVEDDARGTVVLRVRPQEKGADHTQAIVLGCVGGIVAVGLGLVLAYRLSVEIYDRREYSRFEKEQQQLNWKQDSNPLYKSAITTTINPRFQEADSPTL
Assay: VCAM antagonistic activity (VCAM-1/α 4 β 7 binding assay): binding of RPMI-8866 cells to VCAM-1
Assay type: cell-based
Settings: fluorescent RPMI-8866 cells binding to recombinant human VCAM-1, 4 mM MnCl2, room temperature 30 minutes
Procedure: (Test Example) VCAM Antagonistic Activity (VCAM-1/α 4 β 7 Binding Assay)
The capacity of a test substance antagonistic to the binding of lymphoma cell strain RPMI-8866 of human B cells, known to express integrin α 4 β 7, to VCAM-1 was determined.
100 μl/well of a solution (500 ng/ml) of recombinant human VCAM-1 (R & D systems) solution diluted with buffer A (0.1 M NaHCO3, pH 9.6) was added to a micro titer plate having 96 wells (Nunc Maxisorp). After the incubation at 4° C. overnight, unbound VCAM-1 was removed by washing once with PBS. After completion of the washing, a buffer (buffer B) obtained by diluting Block Ace (Dainippon Pharmaceutical Co., Ltd.) with PBS to ¼ concentration was added in an amount of 150 μl/well. After the incubation at room temperature for 1 hour, buffer B was removed and the plate was washed with PBS once.
RPMI-8866 cells were incubated in Dulbecco modified Eagle medium containing 10 μg/ml of Calcein-AM (Wako Pure Chemical Industries, Ltd.) (SIGMA, hereinafter referred to as “DMEM”) at 37° C. for 30 minutes to label with fluorescence. The cells were again suspended in a binding buffer (20 mM HEPES, DMEM containing 0.1% BSA) containing 4 mM of MnCl2.
50 μl of a test substance of various concentrations obtained by the dilution with the binding buffer was added to the plate. Immediately thereafter, 50 μl (final volume: 100 μl/well) of the fluorescent RPMI-8866 cells (4×10^6 cells/ml) were added thereto, and they were incubated at room temperature for 30 minutes. After the shaking on a plate shaker (IKA MTS-4) at 800 rpm for 30 seconds, the solution was immediately removed to remove the unbound cells. The fluorescence quantity of the bound cells remaining in the wells was determined with a fluorescent plate reader (Wallac 1420 ARVO multi-label counter) (filter excitation wave length: 485 nm, emission wave length: 535 nm). The fluorescent strength thus obtained is proportional to the number of RPMI-8866 cells bound to VCAM-1 and remaining on the plate. The binding rate of each test material in various concentrations was determined while the fluorescent strength of the test material-free well was determined to be 100%. The concentration IC50 for the 50% binding inhibition was calculated.
The antagonistic activity is shown as A when IC50 is 0.8 μmol/L or less, B when IC50 is above 0.8 μmol/L and 4 μmol/L or less, C when IC50 is above 4 μmol/L and 20 μmol/L or less, and D when IC50 is above 20 μmol/L and 100 μmol/L or less.

Row | IC50 [µM] | SMILES
1 | 20 to 100 | Cn1c(=O)n(-c2ccc(CC(CC(=O)c3ccccc3)C(=O)O)cc2)c(=O)c2ccccc21 (stereo not drawn) [Example 1, 4-phenyl-2-[4-(1-methyl-2,4-dioxo-1,2,3,4-tetrahydroquinazoline-3-yl)benzyl]-4-oxobutanoic acid]
2 | ≤ 0.8 | Cn1c(=O)n(-c2ccc(/C=C(\CC(=O)c3c(Cl)cccc3Cl)C(=O)O)cc2)c(=O)c2ccccc21 [Example 5, (E)-2-[2-(2,6-dichlorophenyl)-2-oxoethyl]-3-[4-(1-methyl-2,4-dioxo-1,2,3,4-tetrahydroquinazoline-3-yl)phenyl]acrylic acid]
3 | 20 to 100 | COC(=O)c1ccccc1NC(=O)Nc1ccc(CC(CC(=O)c2c(Cl)cccc2Cl)C(=O)O)cc1 (stereo not drawn) [Example 6, 4-(2,6-dichlorophenyl)-2-[4-[[(2-methoxycarbonylphenyl)amino]carbonylamino]benzyl]-4-oxobutanoic acid]

Continued, molecule first:

Row | SMILES | IC50 [µM]
4 | Cn1c(=O)n(-c2ccc(CC(CC(=O)c3c(Cl)cccc3Cl)C(=O)O)cc2)c(=O)c2ccccc21 (stereo not drawn) [Example 2, 4-(2,6-dichlorophenyl)-2-[4-(1-methyl-2,4-dioxo-1,2,3,4-tetrahydroquinazoline-3-yl)benzyl]-4-oxobutanoic acid] | ≤ 0.8
5 | Cn1c(=O)n(-c2ccc(CC(CC(=O)c3c(F)cccc3F)C(=O)O)cc2)c(=O)c2ccccc21 (stereo not drawn) [Example 3, 4-(2,6-difluorophenyl)-2-[4-(1-methyl-2,4-dioxo-1,2,3,4-tetrahydroquinazoline-3-yl)benzyl]-4-oxobutanoic acid] | 0.8 to 4
6 | Cn1c(=O)n(-c2ccc(CC(CC(O)c3c(Cl)cccc3Cl)C(=O)O)cc2)c(=O)c2ccccc21 (stereo not drawn) [Example 7, 4-(2,6-dichlorophenyl)-4-hydroxy-2-[4-(1-methyl-2,4-dioxo-1,2,3,4-tetrahydroquinazoline-3-yl)benzyl]butanoic acid] | 20 to 100
